From patent US9187539B2, “Compositions having antiangiogenic activity and uses thereof” (The Johns Hopkins University, priority 2005, dated 2015)

Experiments:
[1] = system: human umbilical vein endothelial cells (HUVECs); test: HUVEC proliferation assay (WST-1), 3-day, 2,000 cells per well; format: cell-based; settings: 3-day assay; for anti-proliferative activity in words at high peptide concentration: high/highest applied concentration (30 μg/ml where stated); for anti-proliferative activity in words: overall; for anti-proliferative activity (maximum or stated level), scaled so that TNP-470 = 100%: 0.01-30 μg/ml
Procedure: In addition to the 2 and 4 day proliferation experiment where 5,000 cells per well were seeded, the effects of the peptides on the proliferating ability of HUVECs were also studied using cells seeded at a density of 2,000 cells per well. This lower cell seeding density allowed the experiment to be extend for an additional day without changing the cell medium. The effects of the peptides when applied to the cells for 3 consecutive days is also reported herein. The proliferation assay again involved two steps. During the first step 2,000 cells per well for a 96-well plate were seeded without any extracellular matrix substrate on the wells overnight (8 hours). The initial cell culture medium was removed using a multichannel pipetor. To synchronize the cells, the cells were serum starved for 4 hours and the candidate peptides were applied. During serum starvation the cell culture medium was changed from a “full” medium to the “basal” medium, which contained no growth factors or serum. Serum starvation for 4 hours had no effect on the proliferation of the cells. For this assay, the logarithmic scale of four different concentrations of 0.01 μg/ml, 0.1 μg/ml, 1 μg/ml and 10 μg/ml of peptide was used. In addition, a larger concentration of 30 μg/ml peptide was also applied. Each of the concentrations was again tested in quadruplicate. After the third day of peptide application the WST-1 dye was applied for approximately 2 to 4 hours (usually after 3 hours the color saturates). The proliferation was later tested on the ELISA plate reader as described for the 2 and 4 day assay. Note that the 2- and 4-day and the 3-day protocols differed in that 5,000 cells/well versus 2,000 cells/well seeded, respectively.

[2] = system: human umbilical vein endothelial cells (HUVECs); test: HUVEC proliferation assay (WST-1), 2- and 4-day, 5,000 cells per well; format: cell-based; settings: for concentration-response profile in words: 2- and/or 4-day assay; for anti-proliferative activity in words at 0.01 μg/ml: 0.01 μg/ml peptide
Procedure: The effect of the various peptides on cell proliferation was assayed, by administering the peptides to human umbilical vein endothelial cells (HUVECs) in culture. 45 peptides belonging to four distinct families of proteins including the thrombospondin-1 containing proteins, the C-X-C chemokines, collagen derived peptides and peptides from tissue inhibitors of metalloproteinases were tested. The potency of each of the peptides was tested using the proliferation assay at 2 days and 4 days following administration of the peptides and a similar assay using a different cell density at 3 days. In the four-day experiments, the cell medium was changed after the second day of incubation and the peptide was replaced at the initial concentration together with the medium. TNP-470 is an antiangiogenic compound that was used as a positive control for assessing anti-angiogenic efficacy. The activity of each polypeptide was, therefore, expressed as a percentage of TNP-470 activity, i.e., the optical density obtained experimentally is scaled such that the negative control is 0% and the positive control is 100% as explained below (FIG. 4). Each plate included a well having HUVEC cells that received 0.1 μg/ml TNP-470. For example, a peptide having the same effect on endothelial cell proliferation would have 100% of the activity of TNP-470. Note that activity could exceed 100%. In this assay, the effects of the predicted anti-angiogenic fragments on the ability of HUVECs to proliferate was characterized. […] A commonly used methodology to test for proliferation is to monitor the viability and metabolic activity of endothelial cells, in the presence of the anti-angiogenic fragments at different concentrations and various time steps. The cell proliferation reagent WST-1 was used as a substrate/assay to measure the metabolic activity of viable cells. WST-1 is a colorimetric, non-radioactive assay and can be performed in a microplate. It is suitable for measuring cell proliferation, cell viability or cytotoxicity. The assay is based on the reduction a red tetrazolium salt, WST-1, by viable, metabolically active, cells to form the yellow formazan crystals soluble in the cell medium. […] The cells are cultured described above. Once cells have reached 80% confluence they are trypsinized and resuspended in EGM-2. The cell density is estimated using a hemocytometer. All of the endothelial cells used were from passage 4 to passage 8. The proliferation assay involved two steps. During the first step the cells, approximately 5,000 cells per well for a 96-well plate, were seeded without any extracellular matrix substrate on the wells overnight (8 hours). The initial cell culture medium was removed using a multichannel pipetor and the candidate peptides were applied. A logarithmic scale of four different concentrations of 0.01 μg/ml, 0.1 μg/ml, 1 μg/ml and 10 μg/ml of each peptide was used. Each of the concentrations was tested in quadruplicate. The viability of the cells was challenged at 2 and 4 days upon the application of the peptide. As a positive control for decreased viability, 0.1 μg/ml of TNP-470 (O-(chloro-acetyl-carbamoyl) fumagillol, a synthetic analogue of fumagillin; TNP-470 was provided by NCI, was provided along with the medium, and as a negative control for normal viability, the cells were cultured without the addition of any agent. The cells were then incubated with 10 μl per well of the red WST-1 reagent for approximately 2 to 4 hours. During this incubation period, viable cells converted, in their mitochondria, the red WST-1 to the yellow formazan crystals which dissolve in the medium. The second step of the assay involved the quantification of the changes in proliferation which was performed by measuring the change in color after lysing the cells. The samples were read using the ELISA plate reader Victor3 V (Perkin Elmer) at a wavelength of […]. The amount of color produced is directly proportional to the number of viable cells. […]

[3] = 10 μg/ml peptide, 2- and 4-day assay
[4] = 2- and 4-day assay, day not specified or constant throughout the four days
[5] = 4 days of peptide application, 0.01-10 μg/ml
[6] = 2- and 4-day assay, day not specified

Sequence: NGRKACLNPASPIVKKIIEKMLNS [SEQ ID NO: 102, GRO-α/CXCL1 AAP35526.1: 80-103]
- anti-proliferative activity in words at high peptide concentration [1]: significantly increased
- anti-proliferative activity in words at 10 μg/ml [2, 3]: statistically insignificant
- anti-proliferative activity (maximum or stated level), scaled so that TNP-470 = 100% [2, 4]: 15%

Sequence: QPWGTCSESCGKGTQTRAR [SEQ ID NO: 44, Fibulin-6 CAC37630.1: 1688-1706]
- concentration-response profile in words [1]: activity increased with increasing peptide concentration
- concentration-response profile in words [2]: biphasic behavior
- peptide concentration at which maximum activity was observed ([2]; 4 days): 0.01 µg/mL
- anti-proliferative activity (maximum or stated level), scaled so that TNP-470 = 100% [2, 5]: ~40%

Sequence: QPWSQCSATCGDGVRERRR [SEQ ID NO: 64, THSD1 AAQ88516.1: 347-365]
- anti-proliferative activity in words at high peptide concentration [1]: substantial increase in activity
- peptide concentration at which maximum activity was observed [2, 6]: 0.01 µg/mL
- anti-proliferative activity (maximum or stated level), scaled so that TNP-470 = 100% [2, 4]: approximately 20%

Sequence: SAWRACSVTCGKGIQKRSR [SEQ ID NO: 43, Fibulin-6 CAC37630.1: 1574-1592]
- concentration-response profile in words [1]: peptide activity increasing as concentration increased
- anti-proliferative activity (maximum or stated level), scaled so that TNP-470 = 100% [2, 4]: 30%

Sequence: SEWSDCSVTCGKGMRTRQR [SEQ ID NO: 73, VSGP/F-spondin BAB18461.1: 621-639]
- anti-proliferative activity in words at high peptide concentration [1]: increased activity
- concentration-response profile in words [2]: biphasic profile
- anti-proliferative activity in words ([2]; 2 days of peptide application): not statistically significant
- peptide concentration at which maximum activity was observed ([2]; 4 days): 0.01 µg/mL
- anti-proliferative activity in words ([2]; 4 days of peptide application): notable activity

Sequence: SKWSECSRTCGGGVKFQER [SEQ ID NO: 29, ADAMTS-18 Q8TE60: 596-614]
- anti-proliferative activity in words at high peptide concentration [1]: significantly increased
- anti-proliferative activity, TNP-470 = 100% ([2]; 1 μg/ml peptide, 2 days): 30%
- anti-proliferative activity in words at 10 μg/ml [2, 3]: reduced
- concentration-response profile in words [2]: biphasic response

Sequence: SPWSKCSAACGQTGVQTRTR [SEQ ID NO: 39, CILP AAQ89263.1: 156-175]
- peptide concentration at which maximum activity was observed [1]: 0.1 µg/mL
- anti-proliferative activity, TNP-470 = 100% [2, 3]: 5%
- anti-proliferative activity, TNP-470 = 100% ([2]; 0.01 and 0.1 μg/ml peptide, 2- and 4-day assay): 15%
- peptide concentration at which maximum activity was observed [2, 6]: 1 µg/mL
- anti-proliferative activity (maximum or stated level), scaled so that TNP-470 = 100% [2, 4]: ~30%
- concentration-response profile in words [2]: biphasic activity

Sequence: SPWSPCSGNCSTGKQQRTR [SEQ ID NO: 65, THSD3 AAH33140.1: 280-298]
- anti-proliferative activity in words [1]: did not effect endothelial cell proliferation
- anti-proliferative activity in words ([2]; 2- and 4-day assay, overall): did not effect endothelial cell proliferation

Sequence: SPWSPCSTSCGLGVSTRI [SEQ ID NO: 74, WISP-1 AAH74841.1: 221-238]
- anti-proliferative activity in words at high peptide concentration [1]: reached higher values
- anti-proliferative activity in words [1]: intermediate levels
- anti-proliferative activity in words ([2]; 2 days of peptide application): not statistically significant
- anti-proliferative activity (maximum or stated level), scaled so that TNP-470 = 100% [2, 5]: ~20%

Sequence: SPWSQCSVRCGRGQRSRQVR [SEQ ID NO: 69, TSRC1 AAH27478.1: 140-159]
- anti-proliferative activity in words at high peptide concentration [1]: activity increased
- concentration-response profile in words [2]: biphasic
- anti-proliferative activity in words ([2]; 2 days of peptide application): minimal activity
- peptide concentration at which maximum activity was observed ([2]; 4 days): 0.1 µg/mL
- anti-proliferative activity in words ([2]; 4 days of peptide application): prominent activity
- anti-proliferative activity (maximum or stated level), scaled so that TNP-470 = 100% [2, 5]: 25%

Sequence: SPWSQCTASCGGGVQTR [SEQ ID NO: 24, ADAMTS-16 Q8TE57: 1133-1149]
- anti-proliferative activity in words at high peptide concentration [1]: increase in peptide activity
- concentration-response profile in words [2]: biphasic response
- anti-proliferative activity in words ([2]; 4 days of peptide application): strong activity
- anti-proliferative activity (maximum or stated level), scaled so that TNP-470 = 100% [2, 5]: 30%

Sequence: TAWGPCSTTCGLGMATRV [SEQ ID NO: 75, WISP-2 AAQ89274.1: 199-216]
- anti-proliferative activity (maximum or stated level), scaled so that TNP-470 = 100% [1]: 20%
- anti-proliferative activity in words at 0.01 μg/ml ([2]; 2- and 4-day assay): quite potent
- concentration-response profile in words [2]: biphasic response

Sequence: TEWSACNVRCGRGWQKRSR [SEQ ID NO: 71, UNC5D AAQ88514.1: 259-277]
- concentration-response profile in words [1]: biphasic
- anti-proliferative activity (maximum or stated level), scaled so that TNP-470 = 100% [1]: 30%
- anti-proliferative activity (maximum or stated level), scaled so that TNP-470 = 100% [2, 4]: 20%

Sequence: TEWSACSKTCGMGISTRV [SEQ ID NO: 41, CTGF CAC44023.1: 204-221]
- anti-proliferative activity in words [1]: resembled those observed in the 2-day assay
- anti-proliferative activity in words ([2]; 2 days of peptide application): low
- peptide concentration at which maximum activity was observed ([2]; 4 days): 1 µg/mL
- anti-proliferative activity (maximum or stated level), scaled so that TNP-470 = 100% [2, 5]: 40%

Sequence: TEWSVCNSRCGRGYQKRTR [SEQ ID NO: 70, UNC5C AAH41156.1: 267-285]
- anti-proliferative activity, TNP-470 = 100% ([1]; 30 μg/ml peptide): 40%
- peptide concentration at which maximum activity was observed [1]: 10 µg/mL
- anti-proliferative activity (maximum or stated level), scaled so that TNP-470 = 100% [1]: 20%
- anti-proliferative activity in words ([2]; 2 days of peptide application): negligible activity
- anti-proliferative activity (maximum or stated level), scaled so that TNP-470 = 100% [2, 5]: 20%

Sequence: TEWTACSKSCGMGFSTRV [SEQ ID NO: 46, NOVH AAL92490.1: 211-228]
- concentration-response profile in words [1]: monotonic increase with concentration
- peptide concentration at which maximum activity was observed [2, 6]: 0.01 µg/mL
- anti-proliferative activity (maximum or stated level), scaled so that TNP-470 = 100% [2, 4]: 20%

Sequence: TKWTPCSRTCGMGISNRV [SEQ ID NO: 76, WISP-3 CAB16556.1: 191-208]
- concentration-response profile in words [1]: increased significantly as the concentration increased
- anti-proliferative activity in words at 0.01 μg/ml ([2]; 2- and 4-day assay): shows potency
- concentration-response profile in words [2]: biphasic
